Test results reported in patent US8536132B2, “Lymphatic zip codes in tumors and pre-malignant lesions” (Sanford-Burnham Medical Research Institute, priority 2006, dated 2013).
“Also recorded” adds a separate entry of the source. Ends that are not written are not given here. * marks the point of attachment. FITC = O=C1OC2(c3ccc(O)cc3Oc3cc(O)ccc32)c2ccc(NC(=S)*)cc21

Tests used:
TRAMP PIN lesions = experiment: In vivo phage homing to TRAMP pre-malignant (PIN) lesions; design: species or system mouse; conditions: phage clones tested in vivo individually
Protocol: (§1) The following cell lines were maintained in DMEM supplemented with 10% FCS: C8161 human melanoma, MDA-MB-435 human breast cancer, KRIB human osteosarcoma, and human prostate cancer cells PPC1, DU145. LNCaP human prostate cancer cell line was grown in RPMI 1640 medium with 10 mM HEPES, 1 mM sodium pyruvate and 1.5 g/L sodium bicarbonate supplemented with 10% FCS. M12 human prostate cancer cell line was cultured in RPMI 1640 with 5 μg/ml insulin-transferrin-sodium selenite (ITS), 2.5 μg/ml fungizone, 50 μg/ml gentamycin, 0.2 μM dexamethasone, 10 ng/ml epidermal growth factor (EGF), and 5% FCS (Bae et al., 1998). To produce tumors, nude BALB/c and C56BL/6 mice were subcutaneously (C8161, KRIB, and PPC1) or orthotopically ([…], PPC1, DU145, M12, and LNCaP) injected with 1×10^6 tumor cells. Transgenic mouse tumor models included TRAMP prostate cancer, MMTV-PyMT breast cancer, and K14-HPV16 cervical cancer. To initiate cervical carcinogenesis, female K14-HPV16 mice (Arbeit et al., 1994) were treated with 17β-estradiol (E2; (Arbeit et al., 1996; Giraudo et al., 2004). Briefly, one-month-old virgin female transgenic (heterozygous K14-HPV16, 1203#1) and nontransgenic (FVB/n) mice were anesthetized with isoflurane, and continuous release pellets that deliver E2 at doses of 0.05 mg over 60 days (Innovative Research of America, Sarasota, Fla., USA) were implanted subcutaneously in the dorsal back skin. Subsequent pellets were implanted at 3 and 5 months of age for a total of 6 months of hormone treatment. K14-HPV16 mice were maintained in the FVB/n background (FVB/n; The Jackson Laboratory). The mice were maintained in accordance with the University of California, San Francisco (UCSF) institutional guidelines governing the care of laboratory mice. The animal experimentation was approved by Animal Research Committees at UCSF or The Burnham Institute.
(§2) In vivo homing specificity of phage was tested as described (Hoffman, 2004). Briefly, mice bearing tumors were anesthetized and intravenously injected with 5×10^9 pfu of phage. After 7 min, the mice were perfused through the heart with PBS containing 0.5% BSA. The tumor and control organs were dissected from each mouse and the phage were rescued and tittered. For histology analysis, the mice were perfused with 4% PFA 30 min after the injection of phage. Tissues were embedded in Tissue-Tek O.C.T. and 5 μm sections were prepared for phage immunostaining.

[1] = test system: cell suspension derived from pre-malignant prostate lesions; experiment: Phage binding to cell suspension derived from pre-malignant prostate lesions; assay type: cell-based, mouse; conditions: phage clones
Protocol: (§3) An NNK-encoded CX7C library display on T7Select415-1 phage (Novagen) was prepared as previously described (Laakkonen et al., 2002). Phage selection and validation have been described (Hoffman, 2004). A two-step procedure was designed for the selection of peptides targeting the tumor lymphatic vessels of pre-malignant prostate lesions and prostate tumor. First, the phage library was incubated with cells derived from normal prostate to subtract the phage that bind to normal prostate. Second, the anti-podoplanin magnetic beads were used to isolate lymphatic endothelial cells. 2-3 rounds of ex vivo selection and 2-3 rounds of in vivo selections were performed. For the ex vivo selections, cell suspensions were prepared from normal prostates of tumor-free littermates of TRAMP mice, pre-malignant prostates of 14- to 16-week-old TRAMP mice, and tumor tissues of 25- to 28-week-old TRAMP mice. Collagenase IA (1 mg/ml, Sigma) was used to disperse the tissues. About 1×10^7 normal prostate cells were incubated at 4° C. for 3 hrs with […] plaque forming units (pfu) of T7 phage displaying a CX7C peptide library. The samples were centrifuged at 1200 rpm for 10 min, the supernatant (the normal prostate-subtracted phage library) was recovered and then incubated overnight at 4° C. with 5×10^7 cells derived from pre-malignant prostate tissue or prostate tumor. The cells were washed to remove unbound phage, incubated with rat anti-mouse podoplanin for 45 min at 4° C., and washed three times with cold PBS containing 0.5% BSA. Podoplanin-positive cells were then isolated using M450 sheep anti-rat IgG Dynabeads (M450; Dynal, Oslo, Norway). Phage that bound to the podoplanin-positive cell population were rescued and amplified in E. coli. In vivo phage library screening was performed as described (Laakkonen et al., 2002).

C8161 xenografts = experiment: In vivo phage homing to C8161 xenograft tumors; design: species or system mouse; conditions: i.v. injected phage, C8161 xenograft mice
Protocol: as §1, §2

[2] = test system: cell suspensions prepared from C8161 tumors; experiment: Phage binding to cell suspensions prepared from C8161 tumors; assay type: cell-based, mouse; conditions: phage clone, ex vivo
normal tissues = experiment: In vivo phage homing to normal and control tissues; design: species or system mouse; conditions: i.v. injected phage
Protocol: as §2

CXCR4 = target: T1, CXCR4 (Homo sapiens, UniProt P61073); experiment: Phage binding to CXCR4-transfected 293T cells; conditions: 293T cells
T1 construct: expressed in transfected cells; host or cells: 293T cells, transient transfection with FuGene 6
Protocol: (§4) The 293T cells were transfected with plasmids encoding CXCR4 (Helbig et al., 2003) or VEGFR2 (Borges et al., 2000) using FuGene 6 transfection reagent (Roche Diagnostics, Indianapolis, Ind.). Briefly, plasmid (10 μg) was mixed with 900 μl of serumfree DMEM and 50 μl of FuGene and incubated for 15 min at room temperature before adding the mixture to the cells. The cells were detached using EDTA after 48 hrs post transfection and washed with PBS containing 1% BSA. Phage (5×10^9 pfu) were incubated with the transfected cells and bound phage were rescued and titrated. For competitive binding assay, the cognate peptide (150 μg/ml) or antibody (50 μg/ml) was added during incubating of the phage with cells. Targeted proapoptotic peptide treatment of tumor-bearing mice Prostate cancer model. Orthotopic xenografted prostate tumors were established by injecting 1×10^6 PPC1 human prostate cancer cells into the mouse prostate. Fifteen days post inoculation, the mice were intravenously injected with D(KLAKLAK)2-CREAGRKAC (SEQ ID NO:41), an equimolar mixture of D(KLAKLAK)2 (SEQ ID NO:19) and CREAGRKAC (SEQ ID NO:6), or PBS. Biweekly injections of 100 μg/dose/mouse were given for three weeks. Melanoma model. Nude BALB/c mice were subcutaneously injected with 1×10^6 C8161 human melanoma cells. Treatment started when mean tumor volumes reached about 100 mm3. Mice with size-matched tumors were randomized into three groups. The therapeutic group received a chimera of tumor homing peptide with the proapoptotic motif (D(KLAKLAK)2-CLSDCGKRKC; SEQ ID NO:42). The control groups received an equimolar mixture of CLSDGKRKC (SEQ ID NO:4) and D(KLAKLAK)2 (SEQ ID NO:19), or PBS alone. The tumor-bearing mice were intravenously injected with 200 μg/dose/mouse once a week for three weeks. The mice were monitored for weight loss, and tumors were dissected and weighed at the termination of the experiment. Histological analysis was performed to evaluate the density of tumor lymphatics and blood vessels. The animal experiments reported here were approved by The Burnham Institute Animal Research Committee.

[3] = test system: MDA-MB-435 orthotopic xenografts; experiment: In vivo phage homing to MDA-MB-435 orthotopic xenografts; design: species or system mouse; conditions: for phage homing to MDA-MB-435 tumors (in words): i.v. injected phage
Protocol: as §1, §2

K14-HPV16 skin cancer = experiment: In vivo homing to K14-HPV16 skin cancer; design: species or system mouse; conditions: i.v. injection, K14-HPV16 mice
Protocol: as §1, §2

[4] = test system: K14-HPV16/E2 cervical tumors; experiment: In vivo phage homing to K14-HPV16/E2 cervical tumors; design: species or system mouse; conditions: for phage homing to K14-HPV16/E2 cervical tumors (in words): i.v. injected phage
Protocol: as §1, §2

[5] = test system: K14-HPV16/E2 cervical lesions; experiment: Distribution of fluorescent peptides in K14-HPV16/E2 mice with cervical lesions; assay type: in vivo, mouse; conditions: for fluorescent peptide in normal cervix and control tissues: 100 μg i.v., 2 hrs; for fluorescent peptide in K14-HPV16/E2 cervical lesions/tumors (in words): labeled peptide i.v.
Protocol: The frozen sections were prepared for immunohistological analysis.

[6] = test system: K14-HPV16/E2 cervical dysplasia; experiment: In vivo phage homing to K14-HPV16/E2 cervical dysplasia (CIN-3); design: species or system mouse; conditions: for phage homing to K14-HPV16/E2 pre-malignant cervical lesions (in words): i.v. injected phage
Protocol: as §1, §2

[7] = test system: tumor derived cell suspensions (TRAMP); experiment: Phage binding to TRAMP tumor derived cell suspensions; assay type: cell-based, mouse; conditions: phage clones
Protocol: as §3

TRAMP prostate tumors = experiment: In vivo phage homing to TRAMP prostate tumors; design: species or system mouse; conditions: i.v. injected phage clone
Protocol: as §1, §2

[8] = test system: PPC1 orthotopic xenografts; experiment: Targeted proapoptotic peptide treatment of mice with PPC1 orthotopic xenografts; assay type: in vivo; conditions: 100 μg/dose/mouse biweekly i.v., three weeks
Protocol: as §4

[9] = listed as Fluoresceinlabeled LyP-2 peptide
[10] = phage homing in vivo, K14-HPV16/E2 cervical dysplasia
[11] = phage homing in vivo, MDA-MB-435 orthotopic xenografts
[12] = phage homing in vivo, K14-HPV16/E2 cervical cancer / cervical tumors

T1 sequence (P61073 whole entry, species assumed): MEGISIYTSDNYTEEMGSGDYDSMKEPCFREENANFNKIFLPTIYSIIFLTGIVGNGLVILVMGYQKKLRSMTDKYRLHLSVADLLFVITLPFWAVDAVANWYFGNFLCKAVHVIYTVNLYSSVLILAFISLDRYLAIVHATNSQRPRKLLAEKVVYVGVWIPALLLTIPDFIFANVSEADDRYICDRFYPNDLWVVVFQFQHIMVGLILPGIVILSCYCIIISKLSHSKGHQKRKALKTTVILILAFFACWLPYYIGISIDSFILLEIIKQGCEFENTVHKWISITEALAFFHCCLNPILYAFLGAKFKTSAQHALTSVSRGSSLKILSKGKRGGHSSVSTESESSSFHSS

Q: Which “enrichment to pre-malignant TRAMP lesions relative to nonrecombinant phage” value (TRAMP PIN lesions) does the source give for CASLSCR here?
A: 12 fold

Q: What about the “binding to cell suspension from pre-malignant prostate lesions (in words)” value [1] of the same substance?
A: bound

Q: For CLDGGRPKC, which “phage homing to C8161 tumors (in words)” value (C8161 xenografts) is on record?
A: homed selectively to the tumors

Q: What about the “binding to cell suspensions prepared from C8161 tumors (in words)” value [2] of the same substance?
A: bound to cell suspensions prepared from C8161 tumors

Q: With “CGNKRTRGC [LyP-1, previously described lymphatic homing peptide recognizing breast cancer lymphatics and tumor cells, reference compound]” as the substance, how does the “phage homing to normal breast tissue” value (normal tissues) read?
A: Neither phage homed

Q: And the “phage homing to normal cervix” value (normal tissues)?
A: Neither phage homed

Q: And the “phage binding to CXCR4-transfected 293T cells (in words)” value (CXCR4)?
A: did not bind

Q: What about the “phage homing to MDA-MB-435 tumors (in words)” value [3] of the same substance?
A: homes to the MDA-MB-435 tumors

Q: And the “phage homing to MDA-MB-435 tumors (in words)” value ([3]; listed as LyP-1 phage)?
A: homed to MDA-MB-435 tumors

Q: What about the “homing to K14-HPV16 skin cancers (in words)” value (K14-HPV16 skin cancer) of the same substance?
A: homed to the K14-HPV16 skin cancer lymphatics

Q: What about the “phage homing to K14-HPV16/E2 cervical tumors (in words)” value [4] of the same substance?
A: not to the cervical tumors

Q: Which results are given for “FITC-LyP-2: fluorescein-labeled LyP-2 peptide (CNRRTKAGC) ({FITC}-CNRRTKAGC; cysteine pairing not given here)”?
A: fluorescent peptide in normal cervix and control tissues [5]: Little or no fluorescence; fluorescent peptide in normal cervix and control tissues [5, 9]: No peptide accumulation was observed; overlap with podoplanin in cervical lesions ([5]; fluorescein-labeled peptide): 82%; co-localization with MECA-32 ([5]; fluorescein-labeled peptide, cervical lesions): not with MECA-32; fluorescent peptide in K14-HPV16/E2 cervical lesions/tumors (in words) [5, 9]: accumulated in the cervical lesions; fluorescent peptide in K14-HPV16/E2 cervical lesions/tumors (in words) ([5]; listed as fluorescein labeled-LyP-2 peptide): homes to cervical carcinoma

Q: “CNRRTKAGC [LyP-2, homing peptide from K14-HPV16 dysplastic skin lesions; homes to cervical lesion lymphatics]” was tested. Which “phage homing to K14-HPV16/E2 pre-malignant cervical lesions (in words)” value [6] did it give?
A: homes to the cervical cancers and pre-malignant lesions

Q: What about the “phage homing to K14-HPV16/E2 pre-malignant cervical lesions (in words)” value ([6]; listed as LyP-2 phage) of the same substance?
A: Significantly more; also recorded: robust homing

Q: And the “Fold over control phage” value [6, 10]?
A: 17 fold

Q: What about the “Specific Homing” value [6, 10] of the same substance?
A: Yes

Q: And the “phage homing to normal breast tissue” value (normal tissues)?
A: Neither phage homed

Q: What about the “phage homing to normal cervix” value (normal tissues) of the same substance?
A: Neither phage homed

Q: What about the “phage homing to normal cervix” value (normal tissues; listed as LyP-2 phage) of the same substance?
A: not to normal cervix

Q: What about the “Fold over control phage” value [3, 11] of the same substance?
A: 3 fold

Q: What about the “Specific Homing” value [3, 11] of the same substance?
A: No

Q: What about the “homing to K14-HPV16 skin cancers (in words)” value (K14-HPV16 skin cancer) of the same substance?
A: homed to the lymphatics associated with dysplasias and squamous cell carcinomas in the skin; also recorded: homed to the K14-HPV16 skin cancer lymphatics

Q: What about the “phage homing to K14-HPV16/E2 cervical tumors (in words)” value [4] of the same substance?
A: homes to the cervical cancers and pre-malignant lesions

Q: What about the “phage homing to K14-HPV16/E2 cervical tumors (in words)” value ([4]; listed as LyP-2 phage) of the same substance?
A: Significantly more; also recorded: robust homing

Q: What about the “Fold over control phage” value [4, 12] of the same substance?
A: 22 fold

Q: And the “Specific Homing” value [4, 12]?
A: Yes

Q: Which results are given for CSGGKVLDC?
A: enrichment to pre-malignant TRAMP lesions relative to nonrecombinant phage (TRAMP PIN lesions): 14 fold; binding to cell suspension from pre-malignant prostate lesions (in words) [1]: bound

Q: How did the “binding to TRAMP tumor derived cell suspensions (in words)” value [7] turn out when CKTRVSCGV was run?
A: robust binding

Q: And the “enrichment in TRAMP tumors relative to nonrecombinant phage” value (TRAMP prostate tumors)?
A: about 30 fold

Q: Which results are given for CSMSAKKKC?
A: binding to TRAMP tumor derived cell suspensions (in words) [7]: robust binding; enrichment in TRAMP tumors relative to nonrecombinant phage (TRAMP prostate tumors): about 30 fold

Q: What does the source list for “D(KLAKLAK)2-CREAGRKAC (KLAKLAKKLAKLAKCREAGRKAC) [chimera of REA homing peptide with the pro-apoptotic motif D(KLAKLAK)2]”?
A: number of tumor lymphatics (podoplanin staining) [8]: greatly reduced; tumor blood vessel count/density (MECA-32 staining) [8]: unaffected; tumor volume / tumor growth [8]: unaffected; number of tumor lymphatics (podoplanin staining) ([8]; listed as REA conjugate): reduced the number of tumor lymphatics; tumor blood vessel count/density (MECA-32 staining) ([8]; listed as REA conjugate): no effect; tumor volume / tumor growth ([8]; listed as REA conjugate): no effect
